Reference: patent US9382306B2, “Octapeptide compounds derived from somatostatin and the therapeutic use thereof” (IPSEN PHARMA S.A.S., priority 2008, dated 2016)
pKi: −log10 of the molar value. Bridge positions count the residues as written; N and C are the ends. Square brackets hold non-standard residues; d marks the D form. Peptide text beside a SMILES is read from it. ξ: configuration not given here. d2Nal = N[C@H](Cc1ccc2ccccc2c1)C(=O)O; Thr(3ξ) = CC(O)[C@H](N)C(=O)O

Columns and labels:
[1] = molecular target: T1, somatostatin receptors sub-type 2 (Homo sapiens, UniProt P30874); assay: Affinity for somatostatin receptors: inhibition of [125I-Tyr11]SRIF-14 binding to membranes of transfected CHO-K1 cells; conditions: competitive inhibition of [125I-Tyr11]SRIF-14 binding, 37° C.
T1 construct: expressed in transfected cells; membrane preparations
T1 sequence (P30874 whole entry): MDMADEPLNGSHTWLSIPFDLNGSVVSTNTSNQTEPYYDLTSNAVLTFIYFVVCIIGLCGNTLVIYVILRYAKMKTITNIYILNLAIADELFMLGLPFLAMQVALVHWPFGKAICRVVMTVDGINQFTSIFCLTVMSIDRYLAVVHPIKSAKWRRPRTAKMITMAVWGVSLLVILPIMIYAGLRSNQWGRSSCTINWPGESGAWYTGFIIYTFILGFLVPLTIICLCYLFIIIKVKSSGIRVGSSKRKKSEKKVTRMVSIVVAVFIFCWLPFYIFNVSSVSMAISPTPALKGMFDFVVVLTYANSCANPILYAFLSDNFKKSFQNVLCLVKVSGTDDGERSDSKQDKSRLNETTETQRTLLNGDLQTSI
Description: The affinity of the compounds of the invention for the somatostatin receptors is determined by measurement of the inhibition of the bond of [125I-Tyr11]SRIF-14 to membrane preparations of transfected CHO-K1 cells.
The CHO-K1 cells expressing in a stable fashion each of the sub-types of somatostatin receptors are collected with 0.5 mM of EDTA and centrifuged at 500 g for 5 minutes at 4° C. The pellet is re-suspended in phosphate buffer (PBS) and centrifuged at 500 g for 5 minutes at 4° C. The pellet is re-suspended in Tris 50 mM buffer at pH 7.4 and centrifuged at 500 g for 5 minutes at 4° C. The cells are lyzed by sonication and centrifuged at 39,000 g for 10 minutes. The pellet is re-suspended in Tris 50 mM buffer at pH 7.4, an aliquot is removed for assaying the proteins and the remainder is centrifuged at 50,000 g for 10 minutes. The membranes obtained in this last pellet are stored at −80° C.
Measurement of the competitive inhibition of the bond of [125I-Tyr11]SRIF-14 (Perkin Elmer) on each of the sub-types of somatostatin receptors is carried out in duplicate in 96-well polypropylene plates. The cell membranes (5 to 20 µg of proteins/well) are incubated with [125I-Tyr11]SRIF-14 (0.05 to 0.1 nM) for 50 to 90 minutes at 37° C. (conditions dependent on the sub-type of receptor) in a HEPES buffer medium 50 mM pH 7.4, comprising 0.2% bovine serum albumin (BSA), MgCl2 5 mM, Trasylol 200 KIU/mL, Bacitracin 0.02 mg/mL, phenylmethylsulphonyl fluoride 0.02 mg/mL.
The bound [125I-Tyr11]SRIF-14 is separated from the free [125I-Tyr11]SRIF-14 by filtration through GF/C glass fibre plates (Unifilter, Perkin Elmer) pre-impregnated with 0.1% polyethylenimine (P.E.I.), using a Filtermate 96 (Perkin Elmer). The filters are washed with Tris-HCl buffer 50 mM, pH 7.4 at 4° C. and the radioactivity present is determined using a counter (TopCount, Perkin Elmer).
The data are analyzed by computer-assisted non-linear regression using XLfit 4.2 (IDBS) software.

[2] = Rheology of solutions/gels of the octapeptides (oscillatory, cone/plane rheometer); type: physicochemical; conditions: 25° C.
Description: The viscous and viscoelastic properties of the solutions/gels of the compounds according to the invention can be studied by rheology according to the operating methods described hereafter.
The measurements are in general carried out using a rheometer of “Control Stress Haake 600” type (Haake, Germany) equipped with a cone/plane measurement geometry, with a cone 20 mm in diameter, an angle of 1 degree and an air gap of 52 microns. The measurement temperature is fixed at 25° C. +/−0.2° C. using a thermostatically-controlled bath but can be adjusted if necessary.
Two complementary types of tests are carried out, on the one hand measurements in static mode and on the other hand measurements in dynamic mode (oscillatory rheology); both are briefly described hereafter. […]
For the dynamic measurements, a shear strain (γ0) […] of sinusoidal type, of known amplitude and frequency is applied to the sample. The resultant sinusoidal shear stress is measured (amplitude τ0). […] In this case, the sine curves recorded for the shear strain and the shear stress having a phase angle difference δ. The values of τ0, γ0 and δ make it possible to access the viscoelastic parameters:
The storage modulus (also called elastic modulus) is a measurement of the elastic energy stored (or restored) per unit volume, whilst the loss modulus is a measurement of the energy dissipated per unit volume. These moduli must be calculated in the linear viscoelastic region (i.e. experimental conditions for which these moduli are independent of the amplitude of the shear stress (strain)). These experimental conditions are in general determined by a so-called “stress sweep” experiment which consists of a measurement of the elastic modulus and the loss modulus as a function of the amplitude of the deformation imposed (for a given frequency, typically 1Hz). In general, in the case of small deformations, G′ and G″ vary very little with the deformation. Then, on passing the yield point, a strong reduction in G′ and a maximum of G″ is observed. This transition delimits the linear viscoelasticity region. When the linear viscoelasticity region is known, other tests can be carried out such as “frequency sweep” measurements consisting of measuring the dependence of G′ and G″ as a function of shear frequency at a fixed deformation amplitude, comprised in the linear viscoelasticity region.
The critical deformation is the deformation from which the elastic modulus dependent on the deformation applied at a constant frequency. For higher deformations, the material looses its viscoelastic properties and tends to become more viscous than elastic. […]

[3] = Dynamic release test in PBS; type: physicochemical; conditions: PBS pH 7.4, 37° C., % of free compound
Description: Release studies can be carried out on the octapeptide compounds according to the invention in the form of gel, solid, or in suspension. Two types of tests can be envisaged: static release tests and/or dynamic tests, both are briefly described hereafter.
The experimental parameters are common to both types of tests. The release medium is a liquid medium which is physico-chemically well-controlled, preferably a PBS (phosphate buffer saline) buffer adjusted to pH 7.4 and maintained at 37° C. The release curve is defined as the concentration of the studied compound in the dissolution medium (expressed in % of free compound) as a function of time (minutes, hours, days). To initiate the tests, a know quantity of sample is placed in the dissolution medium at time 0 (t=0 min/h/d), the sample being optionally conditioned in a device which is suited to its initial physical state (gel, solid, suspension). Measurements of the concentration of the compound in the release medium are carried out by one or more analytical methods which are well known in the state of the art such as UV-visible spectrophotometry or the HPLC (High Performance Liquid Chromatography). The parameters of the analytical methods are adjusted as a function of the physico-chemical characteristics of the compounds. The tests can be carried out with various starting concentrations such as 75 mM and 226 mM in the examples presented hereafter.
For the dynamic release studies, controlled stirring or a release medium flow is applied to the samples. In this mode, the samplings and/or concentration determinations are generally automated and the studies can be carried out in systems / instruments which are standardized and well known in the state of the art (cf. European Pharmacopeia systems). For example, certain studies in dynamic mode can be carried out on samples corresponding to the order of 10 mg of pure compound placed in 100 mL of PBS introduced beforehand into standardized beakers and maintained at 37° C. The stirring and samplings / measurements are controlled by a dissolution testing instrument of device type 1 or 2 described by the European Pharmacopeia.

| SMILES | pKi [1] | Critical deformation rheology ([2]; 75 mM) | Storage modulus rheology ([2]; 75 mM) | Critical deformation rheology ([2]; 226 mM) | Storage modulus rheology ([2]; 226 mM) | Dynamic release after 44 h ([3]; 75 mM starting concentration) [%] | Dynamic release after 44 h ([3]; 226 mM starting concentration) [%] |
| --- | --- | --- | --- | --- | --- | --- | --- |
| CC(C)[C@@H]1NC(=O)[C@H](CCCCN)NC(=O)[C@@H](Cc2c[nH]cn2)NC(=O)[C@H](Cc2ccc(O)cc2)NC(=O)[C@@H](NC(=O)[C@H](N)Cc2ccc3ccccc3c2)CSSC[C@@H](C(=O)N[C@H](C(N)=O)C(C)O)NC1=O (stereo partly drawn) [Example 3, H-D-2-Nal^1-cyclo(Cys^2-Tyr^3-D-His^4-Lys^5-Val^6-Cys^7)-Thr^8-NH2.2 CH3COOH] (H-[d2Nal]CY[dH]KVC[Thr(3ξ)]-NH2; disulfide 2-7) | ≥ 6.15 | Viscosity | Viscosity | 360 Pa | 150,000 Pa | 100 | 93 |
| CC(C)[C@@H]1NC(=O)[C@H](CCCCN)NC(=O)[C@@H](C)NC(=O)[C@H](Cc2ccc(O)cc2)NC(=O)[C@@H](NC(=O)[C@H](N)Cc2ccc3ccccc3c2)CSSC[C@@H](C(=O)N[C@H](C(N)=O)C(C)O)NC1=O (stereo partly drawn) [Example 4, H-D-2-Nal^1-cyclo(Cys^2Tyr^3-D-Ala^4-Lys^5-Val^6Cys^7)-Thr^8-NH2.2 CH3COOH] (H-[d2Nal]CY[dA]KVC[Thr(3ξ)]-NH2; disulfide 2-7) | ≥ 5.30 | 800 Pa | 184,000 Pa | 18,600 Pa | >2,700,000 Pa | 94 | 75 |
| CC(C)[C@@H]1NC(=O)[C@H](CCCCN)NC(=O)[C@@H](Cc2cccc3ccccc23)NC(=O)[C@H](Cc2ccc(O)cc2)NC(=O)[C@@H](NC(=O)[C@H](N)Cc2ccc3ccccc3c2)CSSC[C@@H](C(=O)N[C@H](C(N)=O)C(C)O)NC1=O (stereo partly drawn) [Example 6, H-D-2-Nal^1-cyclo(Cys^2Tyr^3-13-(1-naphthyl)-D-Ala^4-Lys^5-Val^6-Cys^7)-Thr^8-NH2.2 CH3COOH] | ≥ 8.30 | 5000 Pa | 643,500 Pa | 8500 Pa | >2,700,000 Pa | 37 | 17 |
